Residue numbers refer to the chain shown, from its start. Values joined by “and” are separate entries in the source; they are usually repeats but may differ in a detail not shown here. Equal values may be shown once. Read-outs that look alike come from different tables or passages of the source.
What was measured:
[1] = target: T1, human SLC35B1 (wild type) (Homo sapiens, UniProt P78383); assay: [3H]ADP/ATP exchange kinetics (Michaelis–Menten); type: biochemical; design: made in house; host or cells: Saccharomyces cerevisiae FGY217
T1 sequence (P78383 1-322): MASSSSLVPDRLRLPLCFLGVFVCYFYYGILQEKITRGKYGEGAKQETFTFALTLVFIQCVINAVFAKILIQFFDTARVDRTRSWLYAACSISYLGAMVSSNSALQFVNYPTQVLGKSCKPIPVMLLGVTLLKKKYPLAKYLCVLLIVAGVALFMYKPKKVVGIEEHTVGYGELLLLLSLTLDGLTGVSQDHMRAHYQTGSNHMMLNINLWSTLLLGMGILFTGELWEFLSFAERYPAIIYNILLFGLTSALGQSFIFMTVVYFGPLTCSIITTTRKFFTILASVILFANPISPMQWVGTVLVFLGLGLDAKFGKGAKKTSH

[2] = target: T1, human SLC35B1 (wild type); assay: IC50 for competitive inhibition of [3H]ADP uptake in proteoliposomes; type: biochemical; design: made in house; host or cells: Saccharomyces cerevisiae FGY217
[3] = target: T1, human SLC35B1 (wild type); assay: STD NMR of nucleotide interaction with SLC35B1 proteoliposomes; type: binding; design: made in house; host or cells: Saccharomyces cerevisiae FGY217
[4] = target: T1, human SLC35B1 (wild type); type: binding; design: made in house; host or cells: Saccharomyces cerevisiae FGY217; details: for ΔTm (average melting temperature increase): purified wild-type SLC35B1–GFP; for GFP fluorescence after heating (source data Fig 1B): 1 mM substrate
[5] = target: T2, SLC35B1-Fv-MBP fusion protein (Homo sapiens, UniProt P78383); assay: IC50 for ADP competition of [3H]-ADP/ATP transport, SLC35B1-Fv-MBP; type: biochemical; details: read-out: IC50, external ADP competition of [3H]-ADP/ATP transport; SLC35B1-Fv-MBP fusion protein in proteoliposomes
T2 construct: TEV site (C); GFP (C); His8 (C); made in house; host or cells: SLC35B1: Saccharomyces cerevisiae FGY217; Fv–MBP: Brevibacillus choshinensis (secreted)
T2 sequence (P78383 1-322): T1 sequence (P78383 1-322)

[6] = target: T1, human SLC35B1 (wild type); assay: Competitive uptake assay: [3H]ADP uptake with 1 mM cold nucleotide; type: biochemical; design: made in house; host or cells: Saccharomyces cerevisiae FGY217; details: competitor 1mM; sheet ED 6F; SLC35B1 proteoliposomes
SLC35B1 R276A [7] = target: T3, SLC35B1 R276A (Homo sapiens, UniProt P78383, R276A); details: variant R276A; 1 mM ATP
T3 sequence (P78383 1-322 R276A): T1 sequence (P78383 1-322) with R276A

SLC35B1 C269A = target: T4, SLC35B1 C269A (Homo sapiens, UniProt P78383, C269A); details: variant C269A; 37 °C
T4 sequence (P78383 1-322 C269A): T1 sequence (P78383 1-322) with C269A

SLC35B1 R276A [8] = target: T3, SLC35B1 R276A; details: variant R276A; 37 °C
[9] = target: T1, human SLC35B1 (wild type); details: single temperature 37 °C
SLC35B1 K277A = target: T5, SLC35B1 K277A (Homo sapiens, UniProt P78383, K277A); details: variant K277A; 1 mM ATP
T5 sequence (P78383 1-322 K277A): T1 sequence (P78383 1-322) with K277A

SLC35B1 Q190A = target: T6, SLC35B1 Q190A (Homo sapiens, UniProt P78383, Q190A); details: variant Q190A; 1 mM ATP
T6 sequence (P78383 1-322 Q190A): T1 sequence (P78383 1-322) with Q190A

SLC35B1 I257E [10] = target: T7, SLC35B1 I257E (Homo sapiens, UniProt P78383, I257E); details: variant I257E; 1 mM ATP
T7 sequence (P78383 1-322 I257E): T1 sequence (P78383 1-322) with I257E

BiP = details: cited from earlier work
SLC35B1 T273A = SLC35B1 T273A (Homo sapiens, UniProt P78383, T273A); details: variant T273A; 1 mM ATP
Sequence of SLC35B1 T273A (P78383 whole entry T273A): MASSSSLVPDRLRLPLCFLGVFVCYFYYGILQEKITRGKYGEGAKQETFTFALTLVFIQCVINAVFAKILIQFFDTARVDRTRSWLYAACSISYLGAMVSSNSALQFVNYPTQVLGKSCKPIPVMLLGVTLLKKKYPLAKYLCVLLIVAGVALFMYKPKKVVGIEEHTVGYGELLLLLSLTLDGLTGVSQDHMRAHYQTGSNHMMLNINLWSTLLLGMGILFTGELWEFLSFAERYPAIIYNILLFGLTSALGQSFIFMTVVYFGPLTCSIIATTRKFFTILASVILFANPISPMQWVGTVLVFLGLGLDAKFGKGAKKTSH

SLC35B1 I257E [11] = target: T7, SLC35B1 I257E; details: variant I257E; 37 °C
SLC35B1 R194A = SLC35B1 R194A (Homo sapiens, UniProt P78383, R194A); details: variant R194A; 1 mM ATP
Sequence of SLC35B1 R194A (P78383 whole entry R194A): as the sequence (P78383 whole entry T273A) above, with R194A, A273T counted along it

crude ER microsomes = details: read-out: Km for ATP import into crude ER microsomes; cited from earlier work
SLC35B1 K120A = SLC35B1 K120A (Homo sapiens, UniProt P78383, K120A); assay: biochemical; details: read-out: ΔTm, individual titrations (source data), variant K120A; 1 mM ATP
Sequence of SLC35B1 K120A (P78383 whole entry K120A): as the sequence (P78383 whole entry T273A) above, with K120A, A273T counted along it

SLC35B1 Q113F = target: T8, SLC35B1 Q113F (Homo sapiens, UniProt P78383, Q113F); details: variant Q113F; 1 mM ATP
T8 sequence (P78383 1-322 Q113F): T1 sequence (P78383 1-322) with Q113F

Nc1ncnc2c1ncn2[C@@H]1O[C@H](COP(=O)(O)OP(=O)(O)O)[C@@H](O)[C@H]1O [ADP]
ADP/ATP exchange initial rate ([1]; [ADP] 0.2): 18.1311 nmols / min* mg and 18.3179 nmols / min* mg and 18.8253 nmols / min* mg | ADP/ATP exchange initial rate ([1]; [ADP] 0.5): 28.9111 nmols / min* mg and 29.9816 nmols / min* mg and 28.6714 nmols / min* mg | ADP/ATP exchange initial rate ([1]; [ADP] 1): 44.617 nmols / min* mg and 42.2865 nmols / min* mg and 44.5891 nmols / min* mg | ADP/ATP exchange initial rate ([1]; [ADP] 5): 114.496 nmols / min* mg and 126.14 nmols / min* mg and 112.107 nmols / min* mg | ADP/ATP exchange initial rate ([1]; [ADP] 10): 156.88 nmols / min* mg and 168.644 nmols / min* mg and 150.078 nmols / min* mg | ADP/ATP exchange initial rate ([1]; [ADP] 20): 155.074 nmols / min* mg and 183.464 nmols / min* mg and 182.884 nmols / min* mg | Normalized [3H]-ADP uptake activity (IC50 curve) ([2]; external cold nucleotide 0.01 uM): 93.6927 and 106.307 and 98.0637 | Normalized [3H]-ADP uptake activity (IC50 curve) ([2]; external cold nucleotide 0.1 uM): 87.3862 and 98.7018 and 89.3272 | Normalized [3H]-ADP uptake activity (IC50 curve) ([2]; external cold nucleotide 1 uM): 48.8239 and 76.0895 and 44.7547 | Normalized [3H]-ADP uptake activity (IC50 curve) ([2]; external cold nucleotide 10 uM): 22.7468 and 19.9682 and 21.5397 | Normalized [3H]-ADP uptake activity (IC50 curve) ([2]; external cold nucleotide 100 uM): 8.173 and 6.95 and 8.424 | IC50 ([2]; wild-type SLC35B1 proteoliposomes): 1600 nM | 1H integral (off-resonance spectrum) [3]: 1.99E+11 | STD integral [3]: 3.67E+10 | ΔTm (average melting temperature increase) ([4]; 1 mM nucleotide): 5.3 °C | ΔTm, individual titrations (source data) ([4]; 1 mM nucleotide, wild-type SLC35B1–GFP): 5.49 and 5.09 and 5.45 | GFP fluorescence after heating (source data Fig 1B) ([4]; temperature 4): 98.7528 and 95.6204 and 104.931 and 101.189 and 101.102 and 98.4048 | GFP fluorescence after heating (source data Fig 1B) ([4]; temperature 10): 87.2672 and 91.8788 and 95.3593 and 107.889 and 92.923 and 94.9243 | GFP fluorescence after heating (source data Fig 1B) ([4]; temperature 20): 90.7477 and 91.6178 and 91.1827 and 94.7503 and 88.9204 and 86.6668 | GFP fluorescence after heating (source data Fig 1B) ([4]; temperature 30): 85.9881 and 86.4928 and 88.9204 and 91.0957 and 89.5295 and 91.7048 | GFP fluorescence after heating (source data Fig 1B) ([4]; temperature 40): 42.8735 and 42.656 and 39.9412 and 40.3066 and 43.7088 and 44.6834 | GFP fluorescence after heating (source data Fig 1B) ([4]; temperature 50): 5.748 and 5.6183 and 5.416 and 5.384 and 5.915 and 6.0377 | GFP fluorescence after heating (source data Fig 1B) ([4]; temperature 60): 2.3127 and 2.334 and 2.351 and 2.357 and 2.381 and 2.422 | GFP fluorescence after heating (source data Fig 1B) ([4]; temperature 70): 0.4378 and 0.4464 and 0.4526 and 0.4781 and 0.469 and 0.4867 | IC50 [5]: 2770 ± 410 nM | [3H]ADP uptake in the presence of cold competitor nucleotide (individual replicates; no-competitor control about 100) [6]: -1.767 and -1.033 and 2.879 and 5.424 and 4.368 and 4.176

Nc1ncnc2c1ncn2[C@@H]1O[C@H](COP(=O)(O)OP(=O)(O)OP(=O)(O)O)[C@@H](O)[C@H]1O [ATP]
ΔTm, individual titrations (source data) (SLC35B1 R276A [7]): 0.15 and 0.2 | Concentration-dependent ATP thermostabilization (SLC35B1 C269A): still able to interact with ATP | ΔTm (average melting temperature increase) ([4]; 1 mM nucleotide): 5.2 °C | GFP fluorescence after heating (source data Fig 1B) ([4]; temperature 40): 49.9464 | Concentration-dependent ATP thermostabilization (SLC35B1 R276A [8]): no clear thermostabilization | Concentration of maximal thermostabilization [9]: 1 mM | ΔTm, individual titrations (source data) (SLC35B1 K277A): 2.51 | ΔTm, individual titrations (source data) (SLC35B1 Q190A): 5.9 | ΔTm, individual titrations (source data) (SLC35B1 I257E [10]): 1.4 | kcat of BiP (BiP): 0.000217 s⁻¹ | ΔTm, individual titrations (source data) (SLC35B1 T273A): 2.49 | Concentration-dependent ATP thermostabilization (SLC35B1 I257E [11]): severely diminished | DTM (ΔTm with ATP) (SLC35B1 R194A): robust ATP binding | Km (crude ER microsomes): 3 to 5 µM and 4 µM | ΔTm at 1000 µM (SLC35B1 K120A): 1.17 °C | ΔTm, individual titrations (source data) (SLC35B1 Q113F): 6.34

— article PMC12267056 (Nature, 2025)
